Some test systems named below: 786-0 renal; CCRF-CEM leukemia; COLO 205 colon; DU-145 prostate; HOP-62 NSCLC; NCI-H460 lung; RPMI-8226 leukemia; TK-10 renal; UACC-257 melanoma; UACC-62 melanoma.
Assay in all cases: NCI tumour cell line growth inhibition, 48 h

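Each compound was tested at five concentrations against cells in 96-well plates for 48 hours. GI50 is the concentration that inhibits growth by half. TGI: total growth inhibition.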 Bounds are passed on as bounds.

For `Cc1cc(/C=C2\SC(=Nc3ccccc3)N(C3CCCC3)C2=O)c(C)n1-c1ccc(Cl)cc1`, the GI50 in the assay on 786-0 renal, with CCRF-CEM leukemia, in the assay on COLO 205 colon, with DU-145 prostate, in the assay on HOP-62 NSCLC and in the assay on NCI-H460 lung was > 100 µM each time. For the same molecule, the GI50 in the assay on RPMI-8226 leukemia, with TK-10 renal, in the assay with UACC-257 melanoma and in the assay on UACC-62 melanoma was > 100 µM each time. Further, the TGI with 786-0 renal, with CCRF-CEM leukemia, with COLO 205 colon, in the assay with DU-145 prostate, with HOP-62 NSCLC and in the assay on NCI-H460 lung was > 100 µM throughout. Further, the TGI with RPMI-8226 leukemia, with TK-10 renal, with UACC-257 melanoma and with UACC-62 melanoma was > 100 µM throughout.

Turning to `COc1cc(-c2cnn(C)c2)ccc1Nc1ncc2ccnc(N[C@@H](C)C(C)(C)C)c2n1`, the GI50 in the assay on 786-0 renal was > 31.6 µM; with CCRF-CEM leukemia, > 100 µM; in the assay with COLO 205 colon, 1.81 µM; with DU-145 prostate it was > 100 µM; in the assay on HOP-62 NSCLC it was > 38.3 µM; in the assay on NCI-H460 lung, 0.819 µM. Besides, the GI50 with RPMI-8226 leukemia is > 100 µM; with TK-10 renal, > 79.9 µM; in the assay with UACC-257 melanoma, > 100 µM; in the assay on UACC-62 melanoma it was > 100 µM. Moreover, the TGI in the assay with 786-0 renal, in the assay with CCRF-CEM leukemia, with COLO 205 colon, with DU-145 prostate, in the assay on HOP-62 NSCLC and with NCI-H460 lung was > 100 µM each time. In addition, the TGI with RPMI-8226 leukemia, in the assay with TK-10 renal, with UACC-257 melanoma and in the assay with UACC-62 melanoma was > 100 µM each time.

On to `Nc1nc(-c2cccc([N+](=O)[O-])c2)c(Br)c(=O)[nH]1`, for which the TGI in the assay with 786-0 renal, in the assay on CCRF-CEM leukemia, in the assay on COLO 205 colon, in the assay on DU-145 prostate, in the assay on HOP-62 NSCLC and in the assay on NCI-H460 lung was > 100 µM each time. Also, the TGI was > 100 µM in the assay with RPMI-8226 leukemia, > 100 µM in the assay on TK-10 renal, > 71.4 µM with UACC-257 melanoma and > 69.7 µM in the assay on UACC-62 melanoma.

On to `Cc1ccc(C(=O)c2oc3ccc4c(C)cc(=O)oc4c3c2C)cc1`, for which the GI50 is 5.96 µM with 786-0 renal; > 100 µM with CCRF-CEM leukemia; 4.66 µM with COLO 205 colon; 9.7 µM in the assay on DU-145 prostate; 12.2 µM in the assay with HOP-62 NSCLC; 0.896 µM in the assay with NCI-H460 lung. In addition, the GI50 with RPMI-8226 leukemia is 7.7 µM; in the assay on TK-10 renal it was 45.1 µM; in the assay with UACC-257 melanoma, 35.9 µM; in the assay with UACC-62 melanoma, 2.66 µM. Also, the TGI with 786-0 renal is > 100 µM; in the assay with CCRF-CEM leukemia, > 100 µM; in the assay on COLO 205 colon, > 100 µM; in the assay on DU-145 prostate, > 100 µM; in the assay on HOP-62 NSCLC it was > 100 µM; in the assay with NCI-H460 lung, 18.2 µM. The TGI in the assay with RPMI-8226 leukemia, in the assay with TK-10 renal, with UACC-257 melanoma and with UACC-62 melanoma was > 100 µM each time.

With `O=c1oc2ccccc2c(O)c1/C=N\c1nc(-c2ccccc2)cs1`, the TGI with 786-0 renal was 40.2 µM; in the assay with CCRF-CEM leukemia, 9.74 µM; in the assay with COLO 205 colon, 11.5 µM; with DU-145 prostate, 30.8 µM; in the assay with HOP-62 NSCLC it was 64.4 µM; with NCI-H460 lung, > 100 µM. Further, the TGI in the assay on RPMI-8226 leukemia amounted to 39.5 µM; with TK-10 renal it was 7.58 µM; with UACC-257 melanoma it was 23 µM; with UACC-62 melanoma, 19.3 µM.

With `COc1cc(OC)c(/C=C/c2ccc3ccccc3[n+]2C)c(OC)c1`, the GI50 in the assay with 786-0 renal was 3.16 µM; in the assay with CCRF-CEM leukemia it was 0.697 µM; in the assay on COLO 205 colon, 0.208 µM; with DU-145 prostate, 0.944 µM; with HOP-62 NSCLC, 1.13 µM; in the assay with NCI-H460 lung it was 0.577 µM. Also, the GI50 in the assay with RPMI-8226 leukemia is 0.281 µM; in the assay on TK-10 renal it was 1.91 µM; in the assay on UACC-257 melanoma it was 0.49 µM; in the assay on UACC-62 melanoma it was 1.13 µM. Also, the TGI in the assay with 786-0 renal stood at 16.8 µM; in the assay with CCRF-CEM leukemia, 6.49 µM; in the assay on COLO 205 colon it was 0.465 µM; in the assay with DU-145 prostate, 15.3 µM; in the assay on HOP-62 NSCLC, 12.1 µM; in the assay on NCI-H460 lung, 2.72 µM. The TGI is 2.24 µM in the assay on RPMI-8226 leukemia, 6.93 µM with TK-10 renal, 3.19 µM in the assay with UACC-257 melanoma and 3.08 µM with UACC-62 melanoma.

On to `COc1cc([C@H](C)c2ccc3ccccc3c2)cc(OC)c1OC`, for which the GI50 was 0.536 µM in the assay with 786-0 renal; 0.274 µM in the assay with CCRF-CEM leukemia; 0.306 µM in the assay with COLO 205 colon; 0.494 µM in the assay with DU-145 prostate; 0.578 µM in the assay on HOP-62 NSCLC; 0.332 µM in the assay with NCI-H460 lung. Moreover, the GI50 with RPMI-8226 leukemia was 0.325 µM; in the assay with TK-10 renal it was 12.2 µM; in the assay with UACC-257 melanoma, 1.97 µM; in the assay with UACC-62 melanoma it was 0.499 µM. Also, the TGI in the assay with 786-0 renal was 20 µM; in the assay on CCRF-CEM leukemia, > 100 µM; in the assay on COLO 205 colon, 0.865 µM; in the assay on DU-145 prostate, > 100 µM; in the assay with HOP-62 NSCLC, > 100 µM; with NCI-H460 lung, 18 µM. Moreover, the TGI is 10.9 µM with RPMI-8226 leukemia, > 100 µM in the assay on TK-10 renal, 44 µM in the assay with UACC-257 melanoma and > 100 µM in the assay with UACC-62 melanoma.

Regarding `COC(=O)CCC/C=C\C[C@H]1C=CC(=O)/C1=C/C[C@@H](O)CCc1cccc(C(F)(F)F)c1`, the GI50 was 2.46 µM in the assay on 786-0 renal; 1.09 µM in the assay on CCRF-CEM leukemia; 2.39 µM in the assay with COLO 205 colon; 2.59 µM in the assay with DU-145 prostate; 3.32 µM in the assay on HOP-62 NSCLC; 2.35 µM in the assay with NCI-H460 lung. Also, the GI50 with RPMI-8226 leukemia was 2.85 µM; with TK-10 renal it was 4.49 µM; in the assay on UACC-257 melanoma, 2.48 µM; with UACC-62 melanoma it was 2.16 µM. Moreover, the TGI in the assay with 786-0 renal worked out at 5.57 µM; in the assay with CCRF-CEM leukemia, 12 µM; with COLO 205 colon, 5.85 µM; in the assay on DU-145 prostate, 10 µM; in the assay with HOP-62 NSCLC it was 9.15 µM; in the assay on NCI-H460 lung, 5.57 µM. For the same molecule, the TGI worked out at 14 µM in the assay with RPMI-8226 leukemia, 12.4 µM in the assay with TK-10 renal, 7.49 µM in the assay on UACC-257 melanoma and 5.48 µM in the assay with UACC-62 melanoma.

(Values after PubChem BioAssay (NCI).)
